Results: patent publication US6071709A, “Nerve growth factor/receptor complex” (The United States of America as represented by the …, priority 1992, dated 2000)

Columns and labels:
p140^prototrk = experiment: NGF-dependent trk tyrosine phosphorylation in LA-N-5 neuroblastoma cells; type: cell-based, human; settings: LA-N-5 cells, 100 ng/ml NGF for 5 min
Text: (§1) FIGS. 4A-B show NGF-dependent tyrosine phosphorylation of gp140trk in the human neuroblastoma cell lines LA-N-5, SY5Y, and dorsal root ganglia from mouse embryos. FIG. 4A, gp140trk was immunoprecipitated from untreated (-) or NGF treated (+) LA-N-5 cells (K. H. Sonnenfeld and D. N. Ishii, J. Neurosci. Res. 8:375-391 (1982)), SY5Y cells (K. H. Sonnenfeld and D. N. Ishii, (1982)), NR18 cells (M. A. Bothwell et al., Cell 21:857-866 (1980)), or PC12 cells. Immunoprecipitates were probed with P-tyr antibodies. The differences in trk protein mobilities are due to differences in glycosylation. FIG. 4B, Tyrosine phosphorylation of gp140trk in DRGs from 13.5 day or 14.5 day embryonic mice. DRGs were maintained in 100 ng/ml NGF for ≥10 min prior to lysis and immunoprecipitation with trk antibodies. trk immunoprecipitates were probed with P-tyr antibody. Tyrosine phosphorylated gp140trk from NGF-treated (+) PC12 cells or untreated (-) PC12 cells is shown for comparison. Samples were normalized for cell protein. Molecular weight markers in kDa are indicated.
Cell lines were treated with 100 ng/ml NGF for 5 min and gp140trk immunoprecipitated as in FIG. 1. DRGs were prepared by dissection for 13.5 or 14.5 day mouse embryos. […] Lysates were immunoprecipitated with trk antibody and the trk proteins were analyzed by antiphosphotyrosine immunoblots. […]

trk transcripts = experiment: Northern transfer analysis of trk transcripts in PC12 cells with or without NGF; type: cell-based, rat; settings: 50 ng/ml NGF, 48 hr
Procedure: RNA preparation and Northern transfer analysis was performed as described (Martin-Zanca et al., (1990a)). Cells were treated with 50 ng/ml NGF(+) (Boehringer Mannheim Biochemicals) and were harvested 48 hr later after differentiation had occurred. 20 μg of total RNA was loaded per lane, and the filter was hybridized with a trk (Martin-Zanca et al., (1990)) or trkB (Klein et al., (1990a)) specific probe.
The trk gene is a member of a gene family of TK receptors that includes the related gene trkb. To determine if trk is transcribed in PC12 cells, the expression of trk transcripts was assayed by Northern transfer analysis with a full-length trk cDNA probe (R. Klein et al., (1990a)). PC12 cells contained trk transcripts (FIG. 7). The level of trk transcripts was not affected by the addition of NGF. To determine whether additional trk-related genes were transcribed in PC12 cells, mRNA was hybridized at low stringency with the highly conserved trk TK domain. trk transcripts have been found in LA-N-5 cells, Sy5y cells and DRG from 13.5 day or 14.5 day embryonic mice.

gp140trk = experiment: trk tyrosine phosphorylation in explanted embryonic dorsal root ganglia treated with NGF; type: cell-based, mouse; set-up: dose or concentration left out as unconfirmed
Text: as §1, with “DRGs were maintained in 100 ng/ml NGF for ≥10 min prior to lysis and immunoprecipitation with trk antibodies. trk immunoprecipitates were probed with P-tyr antibody.” left out
Cell lines were treated with 100 ng/ml NGF for 5 min and gp140trk immunoprecipitated as in FIG. 1. DRGs were prepared by dissection for 13.5 or 14.5 day mouse embryos. 100 DRG's were treated with NGF, washed, and subjected to Dounce homogenization in 1% NP40 lysis buffer. Lysates were immunoprecipitated with trk antibody and the trk proteins were analyzed by antiphosphotyrosine immunoblots. […]

In the case of “NGF: neurotrophic polypeptide factor, nerve growth factor; ligand of trk proto-oncogene receptor”, the “p140^prototrk tyrosine phosphorylation” value (p140^prototrk) is reported as “enhanced”, the “level of trk transcripts” value (trk transcripts) is reported as “not affected” and the “phosphorylation of trk protein in 13.5 day DRG” value (gp140trk; E13.5 mouse embryo DRG) is reported as “not in two independent preparations”. The “phosphorylation of trk protein in 14.5 day DRG” value (gp140trk; E14.5 mouse embryo DRG) was “detectable”.
